Experimental data as given in ChEMBL document CHEMBL3397017, “Discovery of a new series of potent prostacyclin receptor agonists with in vivo activity in rat” (Bioorg Med Chem Lett, 2015).
Calls of active or inactive are those of the source. No cut-off for these calls is given here.

How the values were obtained:
Prostacyclin receptor [1] = target: T1, Prostacyclin receptor (Homo sapiens, UniProt P43119); assay: Intrinsic activity at human recombinant IP receptor expressed in CHO-K1 cells incubated for 1 hr by HTRF cAMP assay relative to 1 uM iloprost; format: functional, cell-based
Prostacyclin receptor [2] = target: Prostacyclin receptor (Rattus norvegicus, UniProt P43253); assay: Agonist activity at rat recombinant IP receptor expressed in CHO-K1 cells incubated for 1 hr by HTRF cAMP assay; format: functional, cell-based
[3] = target: T2, Prostaglandin D2 receptor (Homo sapiens, UniProt Q13258); assay: Agonist activity at human recombinant DP1 receptor expressed in melanophores assessed as induction of pigment redistribution incubated for 90 mins
T2 sequence (Q13258 whole entry): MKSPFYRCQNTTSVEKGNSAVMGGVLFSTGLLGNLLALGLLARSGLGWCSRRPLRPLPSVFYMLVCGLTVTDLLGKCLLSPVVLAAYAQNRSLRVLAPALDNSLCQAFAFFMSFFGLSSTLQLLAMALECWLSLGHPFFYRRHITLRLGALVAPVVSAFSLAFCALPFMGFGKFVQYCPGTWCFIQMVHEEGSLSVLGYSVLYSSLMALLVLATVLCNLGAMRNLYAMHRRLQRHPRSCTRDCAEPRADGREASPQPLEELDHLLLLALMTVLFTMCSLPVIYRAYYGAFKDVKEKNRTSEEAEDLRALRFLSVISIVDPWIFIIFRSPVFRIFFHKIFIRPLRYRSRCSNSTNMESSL

Prostacyclin receptor [4] = target: T1, Prostacyclin receptor; assay: Agonist activity at human recombinant IP receptor expressed in CHO-K1 cells incubated for 1 hr by HTRF cAMP assay; format: functional, cell-based
[5] = target: Prostacyclin receptor (Rattus norvegicus) (UniProt P43253); assay: Intrinsic activity at rat recombinant IP receptor expressed in CHO-K1 cells incubated for 1 hr by HTRF cAMP assay relative to 1 uM iloprost; format: functional, cell-based
Liver microsome [6] = assay: Stability in human liver microsomes; format: ADME
Liver microsome [7] = assay: Stability in rat liver microsomes; format: ADME
Rattus norvegicus [8] = assay: Prevention of right ventricular weight increase in rat model of monocrotaline-induced pulmonary arterial hypertension at 30 mg/kg, sc administered twice daily for 21 days relative to sham animal (reference value: 19 no unit); format: functional
Rattus norvegicus [9] = assay: Prevention of right ventricular weight increase in rat model of monocrotaline-induced pulmonary arterial hypertension at 10 mg/kg, sc administered twice daily for 21 days relative to sham animal (reference value: 19 no unit); format: functional
[10] = Half life in iv dosed rat; format: ADME, organism-based; details: in vivo
[11] = target: T2, Prostaglandin D2 receptor; assay: Agonist activity at human recombinant DP1 receptor by melanophore assay
[12] = Oral bioavailability in rat; format: ADME, organism-based; details: in vivo
Rattus norvegicus [13] = assay: Prevention of right ventricular weight increase in rat model of monocrotaline-induced pulmonary arterial hypertension at 1 mg/kg, sc administered twice daily for 21 days relative to sham animal (reference value: 19 no unit); format: functional, Heart right ventricle; details: route subcutaneous
[14] = Half life in sc dosed rat; format: ADME, organism-based; details: in vivo
Rattus norvegicus [15] = assay: Improvement in right ventricular systolic pressure in rat model of monocrotaline-induced pulmonary arterial hypertension at 10 mg/kg, sc administered twice daily for 21 days; format: functional, organism-based; design: dose 10 mg/kg; details: Heart right ventricle
Rattus norvegicus [16] = assay: Prevention of right ventricular weight increase in rat model of monocrotaline-induced pulmonary arterial hypertension administered subcutaneously twice daily for 21 days; format: functional, organism-based; details: Heart right ventricle
Homo sapiens = species: Homo sapiens; assay: Selectivity index, ratio of EC50 for human recombinant DP1 receptor to EC50 for human recombinant IP receptor

T1 sequence (P43119 whole entry): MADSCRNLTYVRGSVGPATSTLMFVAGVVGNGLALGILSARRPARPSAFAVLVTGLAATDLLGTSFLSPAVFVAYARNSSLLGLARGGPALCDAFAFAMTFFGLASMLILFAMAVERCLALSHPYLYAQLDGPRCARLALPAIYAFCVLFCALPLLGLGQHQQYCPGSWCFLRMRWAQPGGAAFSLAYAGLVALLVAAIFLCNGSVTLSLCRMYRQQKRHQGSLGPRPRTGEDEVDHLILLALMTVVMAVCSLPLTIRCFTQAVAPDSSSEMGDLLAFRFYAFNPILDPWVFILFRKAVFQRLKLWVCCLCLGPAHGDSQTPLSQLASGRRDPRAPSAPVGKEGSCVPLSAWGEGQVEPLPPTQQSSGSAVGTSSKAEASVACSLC
Prostacyclin receptor (Rattus norvegicus, UniProt P43253), sequence (P43253 whole entry): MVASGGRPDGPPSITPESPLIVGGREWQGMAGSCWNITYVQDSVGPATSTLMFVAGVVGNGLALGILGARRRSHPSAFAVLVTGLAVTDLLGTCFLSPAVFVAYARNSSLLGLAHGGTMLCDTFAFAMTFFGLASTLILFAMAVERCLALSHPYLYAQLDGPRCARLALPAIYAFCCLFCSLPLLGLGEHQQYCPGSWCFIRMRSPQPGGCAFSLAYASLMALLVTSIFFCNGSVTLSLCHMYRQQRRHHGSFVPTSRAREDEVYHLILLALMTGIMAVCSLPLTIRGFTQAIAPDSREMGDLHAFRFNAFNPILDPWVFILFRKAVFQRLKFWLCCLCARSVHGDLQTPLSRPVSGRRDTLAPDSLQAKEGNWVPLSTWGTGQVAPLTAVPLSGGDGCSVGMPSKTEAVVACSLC
Prostacyclin receptor (Rattus norvegicus), sequence (P43253 whole entry): as above

Row | Compound | Intrinsic activity (Prostacyclin receptor [1]) [%] | EC50 (Prostacyclin receptor [2]) [nM] | EC50 [3] [nM] | EC50 (Prostacyclin receptor [4]) [nM] | Intrinsic activity [5] [%] | Stability (Liver microsome [6]) | Stability (Liver microsome [7]) | other results
1 | Cc1cccc(-c2cc(=O)n(CC3CCc4c(cccc4OCC(=O)O)C3)nc2-c2ccccc2)c1 (racemic) | 97 | 370 | 25 | 180 | 72 | – | – | –
2 | O=C(O)COc1cccc2c1CCC(Cn1ncc(-c3cccc(Cl)c3)c(-c3ccccc3)c1=O)C2 (racemic) | 93 | 260 | – | 86 | 98 | – | – | –
3 | O=C(O)COc1cccc2c1CCC(Cn1nc(-c3ccc(F)cc3)c(-c3ccccc3)cc1=O)C2 (racemic) | 89 | 1500 | – | 114 | 93 | – | – | –
4 | O=C(O)COc1cccc2c1CCC(Cn1nc(-c3ccccc3)c(-c3cccc(Cl)c3)cc1=O)C2 (racemic) | 77 | 360 | 61 | 60 | 62 | – | – | –
5 | O=C(O)COc1cccc2c1CCC(Cn1nc(-c3ccccc3)c(-c3cccc(F)c3)cc1=O)C2 (racemic) | 63 | 900 | 44 | 380 | 97 | – | – | –
6 | O=C(O)COc1cccc2c1CCC(Cn1nc(-c3cccc(F)c3)c(-c3ccccc3)cc1=O)C2 (racemic) | 88 | 2370 | – | 1060 | 99 | – | – | –
7 | COc1ccc(-c2nn(CC3CCc4c(cccc4OCC(=O)O)C3)c(=O)cc2-c2ccccc2)cc1 (racemic) | 80 | 12.5 | 1.7 | 8.5 | 93 | Unstable | Unstable | –
8 | COc1cccc(-c2cnn(CC3CCc4c(cccc4OCC(=O)O)C3)c(=O)c2-c2ccccc2)c1 (racemic) | 101 | 690 | 48 | 140 | 81 | Unstable | Unstable | –
9 | O=C(O)COc1cccc2c1CC[C@@H](Cn1ncc(-c3cccc(F)c3F)c(-c3ccc(F)cc3)c1=O)C2 (racemic) | 98 | 200 | 48 | 6 | 100 | – | – | Activity (Rattus norvegicus [8]; Heart right ventricle): inactive; Activity (Rattus norvegicus [9]; Heart right ventricle): inactive; half-life [10]: 2 h; EC50 [11]: 140 nM; bioavailability [12]: 76%
10 | O=C(O)COc1cccc2c1CCC(Cn1ncc(-c3cccc(F)c3)c(-c3ccccc3)c1=O)C2 (racemic) | 82 | 410 | 88 | 60 | 103 | – | – | –
11 | COc1ccc(-c2nn(CC3CCc4c(cccc4OCC(=O)O)C3)c(=O)cc2-c2ccccc2)cc1F (racemic) | 80 | 51 | 3 | 10 | 75 | Unstable | Unstable | –
12 | O=C(O)COc1cccc2c1CCC(Cn1ncc(-c3cccc(F)c3F)c(-c3ccc(F)cc3)c1=O)C2 (racemic) | 94 | 266 | 42 | 33 | 103 | – | – | –
13 | COc1cccc(-c2nn(CC3CCc4c(cccc4OCC(=O)O)C3)c(=O)cc2-c2ccccc2)c1 (racemic) | 87 | > 10000 | – | 1720 | – | Unstable | Unstable | –
14 | O=C(O)COc1cccc2c1CCC(Cn1ncc(-c3cccc(F)c3F)c(-c3ccccc3)c1=O)C2 (racemic) | 87 | 110 | 36 | 38 | 101 | Stable | Stable | fold change (FC) (Rattus norvegicus [8]; route subcutaneous): 13; fold change (FC) (Rattus norvegicus [13]): 9; half-life [14]: 2.5 h; fold change (FC) (Rattus norvegicus [9]; route subcutaneous): 9; Activity (Rattus norvegicus [15]): Active; EC50 [11]: 400 nM; Activity (Rattus norvegicus [16]): Dose-dependent effect; Ratio EC50 (Homo sapiens): 10
15 | O=C(O)COc1cccc2c1CCC(Cn1nc(-c3ccccc3)c(-c3ccccc3)cc1=O)C2 (racemic) | 60 | 2190 | 21 | 969 | 70 | – | – | –
16 | COc1cccc(-c2cc(=O)n(CC3CCc4c(cccc4OCC(=O)O)C3)nc2-c2ccc(C)cc2)c1 (racemic) | 81 | 28 | 11 | 9.5 | 107 | – | – | –

Row | Compound | Intrinsic activity (Prostacyclin receptor [1]) [%] | EC50 (Prostacyclin receptor [2]) [nM] | EC50 [3] [nM] | EC50 (Prostacyclin receptor [4]) [nM] | Intrinsic activity [5] [%] | Stability (Liver microsome [6]) | Stability (Liver microsome [7]) | other results
17 | COc1cccc(-c2cnn(CC3CCc4c(cccc4OCC(=O)O)C3)c(=O)c2-c2ccccc2)c1F (racemic) | 78 | 40 | 40 | 10 | 98 | Unstable | Unstable | –
18 | Cc1ccc(-c2nn(CC3CCc4c(cccc4OCC(=O)O)C3)c(=O)cc2-c2ccccc2)cc1 (racemic) | 67 | 120 | – | 24 | 99 | – | – | –
19 | COc1cccc(-c2cc(=O)n(CC3CCc4c(cccc4OCC(=O)O)C3)nc2-c2ccccc2)c1 (racemic) | 88 | 310 | 17 | 60 | 96 | Unstable | Unstable | –
20 | O=C(O)COc1cccc2c1CCC(Cn1ncc(-c3ccccc3)c(-c3ccccc3)c1=O)C2 (racemic) | 75 | 260 | 180 | 100 | 88 | – | – | –
21 | O=C(O)COc1cccc2c1CCC(Cn1ncc(-c3ccccc3)c(-c3ccc(F)cc3)c1=O)C2 (racemic) | 80 | 170 | – | 20 | 104 | – | – | –
22 | COc1cccc(-c2cc(=O)n(CC3CCc4c(cccc4OCC(=O)O)C3)nc2-c2ccc(F)cc2)c1 (racemic) | 91 | 620 | 24 | 62 | 102 | – | – | –
23 | COc1ccc(-c2cc(=O)n(CC3CCc4c(cccc4OCC(=O)O)C3)nc2-c2ccccc2)cc1 (racemic) | 47 | > 10000 | – | 2670 | – | Unstable | Unstable | –
24 | O=C(O)COc1cccc2c1CCC(Cn1ncc(-c3ccccc3)c(-c3cccc(F)c3)c1=O)C2 (racemic) | 100 | 790 | – | 260 | 121 | – | – | –
25 | COc1ccc(-c2c(-c3ccccc3)cnn(CC3CCc4c(cccc4OCC(=O)O)C3)c2=O)cc1F (racemic) | 84 | 174 | – | 85 | 100 | Unstable | Unstable | –
26 | COc1ccc(-c2cnn(CC3CCc4c(cccc4OCC(=O)O)C3)c(=O)c2-c2ccccc2)cc1 (racemic) | 73 | > 3000 | – | 1060 | – | Unstable | Unstable | –
27 | O=C(O)COc1cccc2c1CCC(Cn1ncc(-c3ccccc3)c(-c3ccccc3F)c1=O)C2 (racemic) | 91 | 370 | – | 140 | 116 | – | – | –
28 | COc1cccc(-c2cc(=O)n(CC3CCc4c(cccc4OCC(=O)O)C3)nc2-c2ccccc2)c1F (racemic) | 97 | 350 | 6 | 37 | 85 | Unstable | Unstable | –
29 | COc1ccc(-c2c(-c3ccccc3)cnn(CC3CCc4c(cccc4OCC(=O)O)C3)c2=O)cc1 (racemic) | 72 | 11 | – | 4 | 105 | Unstable | Unstable | –
30 | COc1ccc(-c2nn(CC3CCc4c(cccc4OCC(=O)O)C3)c(=O)cc2-c2ccccc2)c(F)c1 (racemic) | 78 | 112 | 31 | 20 | 76 | Unstable | Unstable | –
31 | O=C(O)COc1cccc2c1CCC(Cn1ncc(-c3ccccc3F)c(-c3ccccc3)c1=O)C2 (racemic) | 106 | 420 | 31 | 120 | 99 | – | – | –
